Experimental data: patent publication US20250281465A1, “MOLECULES THAT ENHANCE EXTRACELLULAR VESICLE RELEASE” (priority 2022, published 2025)

Experiments:
[1] = test system: C57BL/6 mice; assay: In vivo adjuvanticity with ovalbumin as model antigen; design: species or system mouse; details: OVA 20 μg + compound 200 nmol i.m. days 0 and 21, day 28
Description: FIGS. 1A-1D. Intracellular Ca^2+ influx screening of 84 HTS hit candidate compounds. (A) THP-1 cells were loaded with the ratiometric Ca^2+ indicator, Fura-2, and treated with lonomycin (ION, 1 μM), Thapsigargin (1 μM), or 84 hit candidate compounds (10 μM) for 25 minutes. Data are presented as the area under the curve (AUG) of OD340/380 ratios corresponding to the intracellular Ca^2+ kinetics. The baseline-subtracted AUG was calculated using GraphPad Prism (GraphPad Software, San Diego, CA). (B) Ca^2+ mobilization by compound #634. mBMDCs were loaded with the ratiometric Ca^2+ indicator, Fura-8, and treated with ION (1 μM), or #634 (2 and 10 μM) for 25 minutes. The dashed line indicates the timing of compounds added. […] OVA-specific IgGI and IgG2c levels in sera were determined by ELISA. **p<0.01, ***p<0.001, ns (not significant) by KruskalWallis tests with Dunn's post hoc test vs. Veh. […]
Eighty-four hit candidate compounds were also screened for in vivo adjuvant activities using C57BL/6 mice and model antigen ovalbumin (OVA). […] Sera were collected on day 28, and OVA-specific immunoglobulins IgG1 and IgG2c were determined by ELISA (FIG. 1D).
The selected 80 compounds were first evaluated for purity and identity by HPLC-MS and compounds which were less than 90% pure were purified by Prep-HPLC. These were then evaluated for vaccine adjuvant activity in mice using a model antigen, ovalbumin (OVA). […]

[2] = test system: CD63-Tluc-CD9-EmGFP THP-1 reporter cells; assay: CD63 Tluc-CD9 EmGFP THP-1 reporter cell assay (EV/exosome release); assay type: cell-based, human; details: 48 hours incubation
Description: All these analogs were evaluated for induction of IL-12 cytokine at 10 μM, followed by dose response IL-12 induction for selected analogs. These analogs were also evaluated for exosome release by quantitating EV release in the supernatant post 48 hours incubation with CD63-Tluc-CD9-EmGFP THP-1 reporter cells.
In the HTS using CD63-Tluc-CD9EmGFP reporter cells (CD63 HTS), PMA (10 ng/ml) was used as a positive control (Shpigelman et al., 2021) and 0.5% DMSO was used as negative control (vehicle, Veh). Briefly, the harvested cells were resuspended in assay media containing 10% exosome-depleted […] (#A2720801, Thermo Fisher Scientific) and plated at 2×10^5 cells/mL (50 μL/well of 384-well plates) (#3674, Corning). Test compounds were added at a final concentration of 10 μM to cells and incubated for 48 hours at 37° C. Subsequently, the plate was centrifuged, supernatant (25 μL) was transferred, and chemiluminescent was measured as recombinant luciferase activity (RLU) after 10 minutes incubation with TurboLuc assay reagent (TurboLuc™ One-Step Glow Assay kit, Thermo Fisher Scientific). The response that measures activation and subsequent release of EVs was calculated using the following formula; % response=100×(compound RLU−average Veh RLU)/(average PMA RLU−average Veh RLU). The viability of cells was assessed using PrestoBlue reagent (Thermo Fisher Scientific). Briefly, PrestoBlue reagent (2.5 μl) was added to the remaining cells and incubated for 30 minutes at room temperature, followed by fluorescence readout at (Ex 560 nm/Em 590 nm) which was normalized to fluorescence data of the Veh wells within the plate to obtain “% viability” calculated as 100×(compound fluorescence/average Veh fluorescence).
CD63 Tluc-CD9 EmGFP THP-1 reporter cell assay. CD63 Tluc CD9 EmGFP THP-1 reporter cell (designated as CD63 Tluc reporter cells) were incubated with 10 μM test compounds, ION (1 μM), or 0.5% DMSO (negative control) in the RPMI 1640 supplemented with exosome-depleted FBS at 5×10^4 cells in 200 μL/well for a 96-well plate for 48 hours at 37° C. Subsequently, the plate was centrifuged, the supernatant was transferred, and chemiluminescence was measured by TurboLuc™ Luciferase One-Step Glow Assay Kit. The response that measures activation and subsequent release of EVs was calculated using the following formula; % response=100×(compound RLU−average Veh RLU)/(average PMA RLU−average Veh RLU).

CCOC(=O)c1c(NS(=O)(=O)c2cccc3c2N=S=N3)sc(C)c1C [#634, ethyl 2-(benzo[c][1,2,5]thiadiazole-4-sulfonamido)-4,5-dimethylthiophene-3-carboxylate]
Anti-OVA IgG1 level in sera [1]: appeared to be higher than the levels from animals immunized without adjuvant, although there were no significant differences
Anti-OVA IgG2c level in sera [1]: appeared to be higher than the levels from animals immunized without adjuvant, although there were no significant differences
exosome (EV) release in CD63 reporter THP-1 cells [2]: enhanced exosome release
